Experimental data from US20240158446A1, “CYCLIC COMPOUND HAVING SELECTIVE INHIBITORY ACTION ON KRAS OVER HRAS AND NRAS” (CHUGAI SEIYAKU KABUSHIKI KAISHA, priority 2021, published 2024).
Like-named read-outs stand apart in the source and are kept apart here. Where a SMILES comes first, the peptide text is derived from it. Bridges are numbered along the chain shown (N, C = ends). [ ]: non-standard residue; d: D form. The star is where a group is joined. hPhe(3,5-F2-4-CF3) = N[C@@H](CCc1cc(F)c(C(F)(F)F)c(F)c1)C(=O)O; hPhe(3-Cl-4-CF3) = N[C@@H](CCc1ccc(C(F)(F)F)c(Cl)c1)C(=O)O; NPrPhe(4-CF3) = CCCN[C@@H](Cc1ccc(C(F)(F)F)cc1)C(=O)O; NEtPhe(4-Me) = CCN[C@@H](Cc1ccc(C)cc1)C(=O)O; NMeGly(cPent) = CN[C@H](C(=O)O)C1CCCC1; Pro(4,4-F2) = O=C(O)[C@@H]1CC(F)(F)CN1; NMeI = CC[C@H](C)[C@H](NC)C(=O)O; NMeD = CN[C@@H](CC(=O)O)C(=O)O; NMeL = CN[C@@H](CC(C)C)C(=O)O; Morpholide = C1CN(*)CCO1; Ac5c = NC1(C(=O)O)CCCC1; Ac4c = NC1(C(=O)O)CCC1; Sar = CNCC(=O)O

Tests used:
[1] = target: GDP-bound NRAS wild-type protein (Homo sapiens, UniProt P01111); assay: Binding to NRAS by surface plasmon resonance (SPR), Single Cycle Kinetics; details: for NRAS/KRAS (ratio of KD value for NRAS to KD value for KRAS) / NRAS/KRAS (ratio of KD value with respect to NRAS to KD value with respect to KRAS): SPR, GDP-bound NRAS wild-type protein vs GDP-bound KRAS wild-type protein; for NRAS/KRAS (ratio of KD value with respect to GDP-bound NRAS wild-type protein to KD value with respect to KRAS): SPR KD ratio NRAS/KRAS, class symbols
Sequence of GDP-bound NRAS wild-type protein (P01111 whole entry): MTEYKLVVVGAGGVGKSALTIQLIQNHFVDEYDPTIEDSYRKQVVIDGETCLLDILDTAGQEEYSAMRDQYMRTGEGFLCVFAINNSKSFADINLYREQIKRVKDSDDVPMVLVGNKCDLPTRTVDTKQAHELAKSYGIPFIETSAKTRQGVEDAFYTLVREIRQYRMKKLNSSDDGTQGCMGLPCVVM

[2] = target: GDP-bound KRAS wild-type protein (Homo sapiens, UniProt P01116); assay: Binding to KRAS by surface plasmon resonance (SPR), Single Cycle Kinetics; details: GDP-bound KRAS wild-type protein, read-out: KRAS KD
Sequence of GDP-bound KRAS wild-type protein (P01116 whole entry): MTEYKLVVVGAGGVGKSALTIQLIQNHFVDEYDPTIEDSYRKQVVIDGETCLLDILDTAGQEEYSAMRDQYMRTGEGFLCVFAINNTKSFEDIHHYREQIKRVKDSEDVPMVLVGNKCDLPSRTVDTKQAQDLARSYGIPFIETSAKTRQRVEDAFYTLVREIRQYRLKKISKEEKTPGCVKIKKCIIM

[3] = target: GDP-bound HRAS wild-type protein (Homo sapiens, UniProt P01112); assay: Binding to HRAS by surface plasmon resonance (SPR), Single Cycle Kinetics; details: for HRAS/KRAS (ratio of KD value for HRAS to KD value for KRAS) / HRAS/KRAS (ratio of KD value with respect to HRAS to KD value with respect to KRAS): SPR, GDP-bound HRAS wild-type protein vs GDP-bound KRAS wild-type protein; for HRAS/KRAS (ratio of KD value with respect to GDP-bound HRAS wild-type protein to KD value with respect to KRAS): SPR KD ratio HRAS/KRAS, class symbols
Sequence of GDP-bound HRAS wild-type protein (P01112 whole entry): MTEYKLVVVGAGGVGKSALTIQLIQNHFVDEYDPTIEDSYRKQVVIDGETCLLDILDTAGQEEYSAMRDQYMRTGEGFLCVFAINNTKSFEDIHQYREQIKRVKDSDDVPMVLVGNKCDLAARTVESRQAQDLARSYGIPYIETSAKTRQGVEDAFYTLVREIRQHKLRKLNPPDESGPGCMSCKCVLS

[4] = SPR Single Cycle Kinetics, 1:1 binding model

Structure (SMILES)	Kd ([2]; SPR, Single Cycle Kinetics) [nM]	Kd [2, 4] [nM]	NRAS/KRAS (ratio of KD value for NRAS to KD value for KRAS) [1]	HRAS/KRAS (ratio of KD value for HRAS to KD value for KRAS) [3]	NRAS/KRAS (ratio of KD value with respect to NRAS to KD value with respect to KRAS) [1]	HRAS/KRAS (ratio of KD value with respect to HRAS to KD value with respect to KRAS) [3]	NRAS/KRAS (ratio of KD value with respect to GDP-bound NRAS wild-type protein to KD value with respect to KRAS) [1]	HRAS/KRAS (ratio of KD value with respect to GDP-bound HRAS wild-type protein to KD value with respect to KRAS) [3]
CCO[C@@H]1C[C@H]2C(=O)NC3(CC(C)(C)C3)C(=O)N(C)[C@@H](C(CC)CC)C(=O)N(C)[C@H](C(=O)N(C)C)CC(=O)N(C)[C@@H](CC(C)C)C(=O)N[C@@H]([C@@H](C)CC)C(=O)N(C)CC(=O)N(C)[C@H]3C/C=C\CCN(C3=O)[C@@H](Cc3ccc(C(F)(F)F)cc3)C(=O)N(C)CC(=O)N[C@@H](CCc3ccc(C(F)(F)F)c(Cl)c3)C(=O)N2C1 [PP2132]	0.27	–	AA (a compound having 20 or more is denoted as AA)	A (a compound having 10 or more and less than 20 is denoted as A)	–	–	–	–
CC[C@H](C)[C@@H]1NC(=O)[C@H](CC(C)C)N(C)C(=O)C[C@@H](C(=O)N2CCCC2)N(C)C(=O)[C@H](C2CCCC2)N(C)C(=O)C2(CCCC2)NC(=O)[C@@H]2CCCN2C(=O)[C@H](CCc2cc(F)c(C(F)(F)F)c(F)c2)NC(=O)CN(C)C(=O)[C@H](Cc2ccc(C(F)(F)F)cc2)N2CCCCC[C@@H](C2=O)N(C)C(=O)CN(C)C1=O [PP0509]	–	2.4	–	–	B (a compound having 3 or more and less than 10 is denoted as B)	B (a compound having 3 or more and less than 10 is denoted as B)	–	–
CC[C@H](C)[C@@H]1NC(=O)[C@H](CC)N(C)C(=O)C[C@@H](C)N(C)C(=O)[C@H](C2CCCC2)N(C)C(=O)C2(CCCC2)NC(=O)[C@@H]2CCCN2C(=O)[C@H](CCc2cc(F)c(C(F)(F)F)c(F)c2)NC(=O)CN(C)C(=O)[C@H](Cc2ccc(C(F)(F)F)cc2)N2CC/C=C\C[C@@H](C2=O)N(C)C(=O)CN(C)C1=O [PP1101]	0.46	–	B (a compound having 3 or more and less than 10 is denoted as B)	B (a compound having 3 or more and less than 10 is denoted as B)	–	–	–	–
CCC[C@H]1C(=O)N[C@@H]([C@@H](C)CC)C(=O)N(C)CC(=O)N(C)[C@H]2C/C=C\CCN(C2=O)[C@@H](Cc2ccc(C(F)(F)F)cc2)C(=O)N(C)CC(=O)N[C@@H](CCc2ccc(Cl)c(C(F)(F)F)c2)C(=O)N2C[C@H](OCC)C[C@H]2C(=O)NC2(CC(C)(C)C2)C(=O)N(C)[C@@H](C2CCCC2)C(=O)N(C)[C@H](C(=O)N(C)C)CC(=O)N1C [PP2784]	–	0.13	–	–	–	–	A (a compound having 10 or more and less than 20 is denoted as A)	A (a compound having 10 or more and less than 20 is denoted as A)
CCO[C@@H]1C[C@H]2C(=O)NC3(CC(C)(C)C3)C(=O)N(C)[C@@H](C(CC)CC)C(=O)N(C)[C@H](C(=O)N(C)C)CC(=O)N(C)[C@@H](CC(C)C)C(=O)N[C@@H]([C@@H](C)CC)C(=O)N(C)CC(=O)N(C)[C@H]3C/C=C\CCN(C3=O)[C@@H](Cc3ccc(C(F)(F)F)cc3)C(=O)N(C)CC(=O)N[C@@H](CCc3ccc(Cl)c(Cl)c3)C(=O)N2C1 [PP2176]	0.47	–	AA (a compound having 20 or more is denoted as AA)	A (a compound having 10 or more and less than 20 is denoted as A)	–	–	–	–
CC[C@H](C)[C@@H]1NC(=O)[C@H](CC(C)C)N(C)C(=O)C[C@@H](C(=O)N2CCC2)N(C)C(=O)[C@H](C2CCCC2)N(C)C(=O)C2(CCCC2)NC(=O)[C@@H]2CCCN2C(=O)[C@H](CCc2cc(F)c(C(F)(F)F)c(F)c2)NC(=O)CN(C)C(=O)[C@H](Cc2ccc(C(F)(F)F)cc2)N2CCCC[C@@H](C2=O)N(C)C(=O)CN(C)C1=O [PP0570]	–	0.046	–	–	B (a compound having 3 or more and less than 10 is denoted as B)	B (a compound having 3 or more and less than 10 is denoted as B)	–	–
CCCN1C(=O)CN(C)C(=O)CN(C)C(=O)[C@H]([C@@H](C)CC)NC(=O)[C@H](CC(C)C)N(C)C(=O)C[C@@H](C(=O)N2CCOCC2)N(C)C(=O)[C@H](C2CCCC2)N(C)C(=O)C2(CCCC2)NC(=O)[C@@H]2CCCN2C(=O)[C@H](CCc2cc(F)c(C(F)(F)F)c(F)c2)NC(=O)CN(C)C(=O)[C@@H]1Cc1ccc(C(F)(F)F)cc1 [PP0753] ([NMeL]I[Sar][Sar][NPrPhe(4-CF3)][Sar][hPhe(3,5-F2-4-CF3)]P[Ac5c][NMeGly(cPent)][NMeD]-Morpholide; lactam N-11)	–	0.14	–	–	B (a compound having 3 or more and less than 10 is denoted as B)	C (A compound having a KD ratio of 0.1 or more and less than 3 is denoted as C)	–	–
CC[C@H](C)[C@@H]1NC(=O)[C@H](CC(C)C)N(C)C(=O)C[C@@H](C(=O)N2CCOCC2)N(C)C(=O)[C@H]([C@@H](C)CC)N(C)C(=O)C2(CCCC2)NC(=O)[C@@H]2CCCN2C(=O)[C@H](CCc2ccc(C(F)(F)F)c(Cl)c2)NC(=O)CN(C)C(=O)[C@H](Cc2ccc(C)cc2)N(CC)C(=O)CN(C)C(=O)CN(C)C1=O [PP0043] ([NMeL]I[Sar][Sar][NEtPhe(4-Me)][Sar][hPhe(3-Cl-4-CF3)]P[Ac5c][NMeI][NMeD]-Morpholide; lactam N-11)	–	0.87	C (A compound having a KD ratio of 0.1 or more and less than 3 is denoted as C)	C (A compound having a KD ratio of 0.1 or more and less than 3 is denoted as C)	–	–	–	–

Continued, in another order:

Kd ([2]; SPR, Single Cycle Kinetics) [nM]	Kd [2, 4] [nM]	Structure (SMILES)	NRAS/KRAS (ratio of KD value for NRAS to KD value for KRAS) [1]	HRAS/KRAS (ratio of KD value for HRAS to KD value for KRAS) [3]	NRAS/KRAS (ratio of KD value with respect to NRAS to KD value with respect to KRAS) [1]	HRAS/KRAS (ratio of KD value with respect to HRAS to KD value with respect to KRAS) [3]	NRAS/KRAS (ratio of KD value with respect to GDP-bound NRAS wild-type protein to KD value with respect to KRAS) [1]	HRAS/KRAS (ratio of KD value with respect to GDP-bound HRAS wild-type protein to KD value with respect to KRAS) [3]
–	34	CC[C@H](C)[C@@H]1NC(=O)[C@H](CC(C)C)N(C)C(=O)C[C@@H](C(=O)N2CCOCC2)N(C)C(=O)[C@H](C2CCCC2)N(C)C(=O)C2(CCCC2)NC(=O)[C@@H]2CCCN2C(=O)[C@H](CCc2cc(F)c(C(F)(F)F)c(F)c2)NC(=O)CN(C)C(=O)[C@H](Cc2ccc(C(F)(F)F)cc2)N2CCCCC[C@@H](C2=O)N(C)C(=O)CN(CC)C1=O [PP0483]	–	–	B (a compound having 3 or more and less than 10 is denoted as B)	B (a compound having 3 or more and less than 10 is denoted as B)	–	–
–	0.77	CCCN1C(=O)CN(C)C(=O)CNC(=O)[C@H]([C@@H](C)CC)NC(=O)[C@H](CC(C)C)N(C)C(=O)C[C@@H](C(=O)N(C)C)NC(=O)[C@H](C2CCCC2)N(C)C(=O)C2(CCC2)NC(=O)[C@@H]2CC(F)(F)CN2C(=O)[C@H](CCc2ccc(C(F)(F)F)c(Cl)c2)NC(=O)CN(C)C(=O)[C@@H]1Cc1ccc(C(F)(F)F)cc1 [PP0364] ([NMeL]IG[Sar][NPrPhe(4-CF3)][Sar][hPhe(3-Cl-4-CF3)][Pro(4,4-F2)][Ac4c][NMeGly(cPent)]D-NMe2; lactam N-11)	B (a compound having 3 or more and less than 10 is denoted as B)	B (a compound having 3 or more and less than 10 is denoted as B)	–	–	–	–
–	1.2	CCCN(C)C(=O)[C@@H]1CC(=O)N(C)[C@@H](CC)C(=O)N[C@@H]([C@@H](C)CC)C(=O)N(C)CC(=O)N(C)[C@H]2C/C=C\CCN(C2=O)[C@@H](Cc2ccc(C(F)(F)F)cc2)C(=O)N(C)CC(=O)N[C@@H](CCc2cc(F)c(C(F)(F)F)c(F)c2)C(=O)N2CC[C@H]2C(=O)NC2(CCC2)C(=O)N(C)[C@@H](C2CCCC2)C(=O)N1C [PP2915]	–	–	–	–	A (a compound having 10 or more and less than 20 is denoted as A)	A (a compound having 10 or more and less than 20 is denoted as A)
0.16	–	C#CC[C@H]1C(=O)N[C@@H]([C@@H](C)CC)C(=O)N(C)CC(=O)N(C)[C@H]2C/C=C\CCN(C2=O)[C@@H](Cc2ccc(C)cc2)C(=O)N(C)CC(=O)N[C@@H](CCc2ccc(C(F)(F)F)c(Cl)c2)C(=O)N2CC3(CC3)C[C@H]2C(=O)NC2(CC(C)(C)C2)C(=O)N(C)[C@@H](C2CCCC2)C(=O)N(C)[C@H](C(=O)N(C)C)CC(=O)N1C [PP2982]	A (a compound having 10 or more and less than 20 is denoted as A)	A (a compound having 10 or more and less than 20 is denoted as A)	–	–	–	–
–	0.029	CCCN1C(=O)CN(C)C(=O)CN(C)C(=O)[C@H]([C@@H](C)CC)NC(=O)[C@H](CC(C)C)N(C)C(=O)C[C@@H](C(=O)N(C)C)N(C)C(=O)[C@H](C2CCCC2)N(C)C(=O)C2(CCC2)NC(=O)[C@@H]2CC(F)(F)CN2C(=O)[C@H](CCc2ccc(C(F)(F)F)c(Cl)c2)NC(=O)CN(C)C(=O)[C@@H]1Cc1ccc(C(F)(F)F)cc1 [PP0414] ([NMeL]I[Sar][Sar][NPrPhe(4-CF3)][Sar][hPhe(3-Cl-4-CF3)][Pro(4,4-F2)][Ac4c][NMeGly(cPent)][NMeD]-NMe2; lactam N-11)	–	–	B (a compound having 3 or more and less than 10 is denoted as B)	C (A compound having a KD ratio of 0.1 or more and less than 3 is denoted as C)	–	–
